# Measurements reported in PMC8874959 (Viruses, 2022).
# Read-outs that look alike come from different tables or passages of the source.
# What was measured:
# SARS-CoV-2 D614G [1] = test system: SARS-CoV-2 D614G
# SARS-CoV-2 D614G [2] = test system: SARS-CoV-2 D614G; remark: listed apart in the source
SMILES,EC50 (SARS-CoV-2 D614G [1]),EC90 (SARS-CoV-2 D614G [1]),EC50 (SARS-CoV-2 D614G [2]),EC90 (SARS-CoV-2 D614G [2])
CCN(CC)CCCC(C)Nc1ccnc2cc(Cl)ccc12 (centres unmarked) [Chloroquine],1100 ± 70 nM,3500 ± 800 nM,> 10000 nM,> 10000 nM
OC(c1cc(C(F)(F)F)nc2c(C(F)(F)F)cccc12)C1CCCCN1 (centres unmarked) [Mefloquine],600 ± 30 nM,–,–,–
